Converted amounts (≈) assume the structure as drawn. The source made the active and inactive calls. The calls are words filed in the database; no cut-off is given here.
Columns and labels:
[1] = system: Pichia kudriavzevii; assay: Antifungal activity against Candida krusei by microdilution test; type: functional
[2] = Antifungal activity against Aspergillus fumigates by microdilution test; type: functional
[3] = system: Candida parapsilosis; assay: Antifungal activity against Candida parapsilosis by microdilution test; type: functional; details: for MIC: Lodderomyces parapsilosis
[4] = system: Candida albicans; assay: Antifungal activity against Candida albicans by microdilution test; type: functional
[5] = system: Aspergillus flavus; assay: Antifungal activity against Aspergillus flavus by microdilution test; type: functional
[6] = system: Exophiala spinifera; assay: Antifungal activity against Exophiala spinifera by microdilution test; type: functional
[7] = system: Meyerozyma guilliermondii; assay: Antifungal activity against Candida guilliermondii by microdilution test; type: functional
[8] = Antifungal activity against Exophiala xenobiotica by microdilution test; type: functional
[9] = system: Nakaseomyces glabratus; assay: Antifungal activity against Candida glabrata by microdilution test; type: functional
[10] = system: Aspergillus niger; assay: Antifungal activity against Aspergillus niger by microdilution test; type: functional
[11] = system: Cryptococcus neoformans; assay: Antifungal activity against Cryptococcus neoformans by microdilution test; type: functional
[12] = system: Aspergillus terreus; assay: Antifungal activity against Aspergillus terreus by microdilution test; type: functional
[13] = Antifungal activity against Exophiala oligosperma by microdilution test; type: functional
[14] = system: Aspergillus nidulans; assay: Antifungal activity against Aspergillus nidulans by microdilution test; type: functional, organism-based
[15] = Antifungal activity against Cladophialophora carrionii by microdilution test; type: functional

| SMILES | MIC [1] | MIC [2] | MIC [3] | MIC [4] | MIC [5] | Activity [1] | Activity [2] | Activity [3] | Activity [13] | Activity [4] | Activity [5] | Activity [6] | Activity [7] | Activity [8] | Activity [9] | Activity [10] | Activity [11] | Activity [14] | Activity [12] | Activity [15] | also measured |
| --- | --- | --- | --- | --- | --- | --- | --- | --- | --- | --- | --- | --- | --- | --- | --- | --- | --- | --- | --- | --- | --- |
| OC(Cn1cncn1)(Cn1cncn1)c1ccc(F)cc1F [FLUCONAZOLE] | 64 µg/mL (≈ 209 µM) | 16 µg/mL (≈ 52.2 µM) | 1 µg/mL (≈ 3.27 µM) | 2 µg/mL (≈ 6.53 µM) | 16 µg/mL (≈ 52.2 µM) |  |  |  |  |  |  |  |  |  |  |  |  |  |  |  | MIC [6]: 16 µg/mL (≈ 52.2 µM); MIC [7]: 4 µg/mL (≈ 13.1 µM); MIC [8]: 16 µg/mL (≈ 52.2 µM); MIC [9]: 1 µg/mL (≈ 3.27 µM); MIC [10]: 16 µg/mL (≈ 52.2 µM); MIC [11]: 8 µg/mL (≈ 26.1 µM); MIC [12]: 16 µg/mL (≈ 52.2 µM) |
| O=C(CCCl)N1c2ccccc2Sc2ccccc21 |  |  |  |  |  | inactive | inactive | inactive | inactive | inactive | inactive | inactive | inactive | inactive | inactive | inactive | inactive | inactive | inactive | inactive |  |
| C[C@@H]1[C@H](O)[C@@H](C)/C=C/C=C/C=C/C=C/C=C/C=C/C=C/[C@H](O[C@@H]2O[C@H](C)[C@@H](O)[C@H](N)[C@@H]2O)C[C@@H]2O[C@](O)(C[C@@H](O)C[C@@H](O)[C@H](O)CC[C@@H](O)C[C@@H](O)CC(=O)O[C@H]1C)C[C@H](O)[C@H]2C(=O)O [AMPHOTERICIN B] | 0.25 µg/mL (≈ 0.271 µM) | 0.5 µg/mL (≈ 0.541 µM) | 0.5 µg/mL (≈ 0.541 µM) | 0.5 µg/mL (≈ 0.541 µM) | 0.25 µg/mL (≈ 0.271 µM) |  |  |  |  |  |  |  |  |  |  |  |  |  |  |  | MIC [6]: 1 µg/mL (≈ 1.08 µM); MIC [7]: 1 µg/mL (≈ 1.08 µM); MIC [8]: 1 µg/mL (≈ 1.08 µM); MIC [9]: 0.25 µg/mL (≈ 0.271 µM); MIC [10]: 0.5 µg/mL (≈ 0.541 µM); MIC [12]: 2 µg/mL (≈ 2.16 µM) |
| O=C(CCl)N(c1ccccc1)c1ccccc1 |  |  |  |  |  | inactive | inactive | inactive | inactive | inactive | inactive | inactive | inactive | inactive | inactive | inactive | inactive | inactive | inactive | inactive |  |
| CN(C/C=C/C#CC(C)(C)C)Cc1cccc2ccccc12 [TERBINAFINE] | 0.06 µg/mL (≈ 0.206 µM) | 0.25 µg/mL (≈ 0.858 µM) | 0.06 µg/mL (≈ 0.206 µM) | 0.5 µg/mL (≈ 1.72 µM) | 0.25 µg/mL (≈ 0.858 µM) |  |  |  |  |  |  |  |  |  |  |  |  |  |  |  | MIC [13]: 0.06 µg/mL (≈ 0.206 µM); MIC [6]: 0.06 µg/mL (≈ 0.206 µM); MIC [7]: 0.5 µg/mL (≈ 1.72 µM); MIC [8]: 0.06 µg/mL (≈ 0.206 µM); MIC [9]: 0.06 µg/mL (≈ 0.206 µM); MIC [10]: 0.125 µg/mL (≈ 0.429 µM); MIC [11]: 0.25 µg/mL (≈ 0.858 µM); MIC [12]: 0.06 µg/mL (≈ 0.206 µM); MIC [15]: 0.25 µg/mL (≈ 0.858 µM) |
| CN(C)S(=O)(=O)c1ccc2c(c1)N(C(=O)CCCl)c1ccccc1S2 |  |  |  |  |  | inactive | inactive | inactive | inactive | inactive | inactive | inactive | inactive | inactive | inactive | inactive | inactive | inactive | inactive | inactive |  |
| OCCC1CCNCC1 |  |  |  |  |  | inactive | inactive | inactive | inactive | inactive | inactive | inactive | inactive | inactive | inactive | inactive | inactive | inactive | inactive | inactive |  |
| CCC(C)n1ncn(-c2ccc(N3CCN(c4ccc(OCC5COC(Cn6cncn6)(c6ccc(Cl)cc6Cl)O5)cc4)CC3)cc2)c1=O (configuration not stated) [ITRACONAZOLE] | 0.06 µg/mL (≈ 0.085 µM) | 0.25 µg/mL (≈ 0.354 µM) | 0.125 µg/mL (≈ 0.177 µM) | 0.125 µg/mL (≈ 0.177 µM) | 0.125 µg/mL (≈ 0.177 µM) |  |  |  |  |  |  |  |  |  |  |  |  |  |  |  | MIC [13]: 0.125 µg/mL (≈ 0.177 µM); MIC [6]: 0.06 µg/mL (≈ 0.085 µM); MIC [7]: 0.5 µg/mL (≈ 0.709 µM); MIC [8]: 0.06 µg/mL (≈ 0.085 µM); MIC [9]: 0.25 µg/mL (≈ 0.354 µM); MIC [10]: 0.125 µg/mL (≈ 0.177 µM); MIC [11]: 0.25 µg/mL (≈ 0.354 µM); MIC [12]: 0.125 µg/mL (≈ 0.177 µM); MIC [15]: 0.06 µg/mL (≈ 0.085 µM) |
| CN(C)S(=O)(=O)c1ccc2c(c1)N(CCCN1CCC(CCO)CC1)c1ccccc1S2 [PIPOTIAZINE] | 512 µg/mL (≈ 1080 µM) | > 512 µg/mL | 256 µg/mL (≈ 538 µM) | 256 µg/mL (≈ 538 µM) | > 512 µg/mL |  |  |  |  |  |  |  |  |  |  |  |  |  |  |  | MIC [13]: 512 µg/mL (≈ 1080 µM); MIC [6]: 256 µg/mL (≈ 538 µM); MIC [7]: 256 µg/mL (≈ 538 µM); MIC [8]: 512 µg/mL (≈ 1080 µM); MIC [9]: 256 µg/mL (≈ 538 µM); MIC [10]: > 512 µg/mL; MIC [11]: 256 µg/mL (≈ 538 µM); MIC [12]: > 512 µg/mL; MIC [15]: 256 µg/mL (≈ 538 µM) |
| O=C(CCl)N1c2ccccc2Sc2ccccc21 | 32 µg/mL (≈ 116 µM) | 16 µg/mL (≈ 58 µM) | 32 µg/mL (≈ 116 µM) | 32 µg/mL (≈ 116 µM) | 32 µg/mL (≈ 116 µM) |  |  |  |  |  |  |  |  |  |  |  |  |  |  |  | MIC [13]: 16 µg/mL (≈ 58 µM); MIC [6]: 16 µg/mL (≈ 58 µM); MIC [7]: 32 µg/mL (≈ 116 µM); MIC [8]: 16 µg/mL (≈ 58 µM); MIC [9]: > 512 µg/mL; MIC [10]: 2 µg/mL (≈ 7.25 µM); MIC [11]: 8 µg/mL (≈ 29 µM); MIC [12]: 16 µg/mL (≈ 58 µM); MIC [15]: 4 µg/mL (≈ 14.5 µM) |
| CC(CN1c2ccccc2Sc2ccccc21)N(C)C (configuration not stated) [PROMETHAZINE] | 256 µg/mL (≈ 900 µM) | 256 µg/mL (≈ 900 µM) | 512 µg/mL (≈ 1800 µM) | > 512 µg/mL | 256 µg/mL (≈ 900 µM) |  |  |  |  |  |  |  |  |  |  |  |  |  |  |  | MIC [13]: 256 µg/mL (≈ 900 µM); MIC [6]: 256 µg/mL (≈ 900 µM); MIC [7]: 512 µg/mL (≈ 1800 µM); MIC [8]: 256 µg/mL (≈ 900 µM); MIC [9]: > 512 µg/mL; MIC [10]: 256 µg/mL (≈ 900 µM); MIC [11]: 256 µg/mL (≈ 900 µM); MIC [12]: 256 µg/mL (≈ 900 µM); MIC [15]: 512 µg/mL (≈ 1800 µM) |
| O=C(CCl)n1c2ccccc2c2ccccc21 |  |  |  |  |  | inactive | inactive | inactive | inactive | inactive | inactive | inactive | inactive | inactive | inactive | inactive | inactive | inactive | inactive | inactive |  |
| Nc1nc(=O)[nH]cc1F [FLUCYTOSINE] | 0.5 µg/mL (≈ 3.87 µM) | 0.5 µg/mL (≈ 3.87 µM) | 0.5 µg/mL (≈ 3.87 µM) | 2 µg/mL (≈ 15.5 µM) | 1 µg/mL (≈ 7.75 µM) |  |  |  |  |  |  |  |  |  |  |  |  |  |  |  | MIC [13]: 4 µg/mL (≈ 31 µM); MIC [6]: 2 µg/mL (≈ 15.5 µM); MIC [7]: 1 µg/mL (≈ 7.75 µM); MIC [8]: 8 µg/mL (≈ 62 µM); MIC [9]: 1 µg/mL (≈ 7.75 µM); MIC [10]: 0.5 µg/mL (≈ 3.87 µM); MIC [11]: 0.5 µg/mL (≈ 3.87 µM); MIC [12]: 1 µg/mL (≈ 7.75 µM); MIC [15]: 1 µg/mL (≈ 7.75 µM) |
| CC(=O)N1c2ccccc2Sc2ccccc21 |  |  |  |  |  | inactive | inactive | inactive | inactive | inactive | inactive | inactive | inactive | inactive | inactive | inactive | inactive | inactive | inactive | inactive |  |
| CN(C)S(=O)(=O)c1ccc2c(c1)N(C(=O)CCl)c1ccccc1S2 |  |  |  |  |  | inactive | inactive | inactive | inactive | inactive | inactive | inactive | inactive | inactive | inactive | inactive | inactive | inactive | inactive | inactive |  |
| O=C(CCl)Nc1ccccc1Sc1ccccc1 |  |  |  |  |  | inactive | inactive | inactive | inactive | inactive | inactive | inactive | inactive | inactive | inactive | inactive | inactive | inactive | inactive | inactive |  |
| ClCCCN1c2ccccc2Sc2ccccc21 |  |  |  |  |  | inactive | inactive | inactive | inactive | inactive | inactive | inactive | inactive | inactive | inactive | inactive | inactive | inactive | inactive | inactive |  |
| O=C(CCl)N1c2ccccc2Oc2ccccc21 |  |  |  |  |  | inactive | inactive | inactive | inactive | inactive | inactive | inactive | inactive | inactive | inactive | inactive | inactive | inactive | inactive | inactive |  |

From ChEMBL document CHEMBL1649364, “Synthesis and antifungal activity of some substituted phenothiazines and related compounds” (2011)
